According to patent US20030091589A1, “Methods and compositions for control of coccidiosis” (priority 2001, published 2003):
Marks after values point to notes of the source that are not given here.

Key:
[1] = tested on: Eimeria spp.; experiment: 42-day trials, growth of broiler chicks reared on Eimeria-infected recycled litter (Example 6); assay type: in vivo, Cornish Rock male broiler chicks; details: AVATEC 90.7 g/ton, Bacitracin Zn 50 g/t, BIO-MOS 0.5 kg/tonne
Method: Three 42-day trials were conducted to evaluate the effects of AVATEC (lasalocid, Alpharma, Fort Lee, N.J.), an anticoccidial ionophore (90.7 g/ton); Bacitracin Zn, (50 g/t), and BIO-MOS® (0.5 kg/tonne) on the growth of broiler chicks reared on recycled litter. Sixty (day-old) Cornish Rock male broiler chicks were put into each of four treatment groups (replicated three times) consisting of the following: 1) Control (untreated birds); 2) BIO-MOS® treated, 3) AVATEC treated, and 4) Bacitracin ZN treated. Pine wood shavings on which broilers infected with E. tenella, E. maxima, and E. acervulina had been grown were used as recycled litter for the trials. Pens containing this recycled litter were assigned to the four treatment groups prior to commencement of the trial, and day old chicks were introduced for each of the three subsequent trials with the same recycled litter.
Diets consisted of mainly corn-soy supplemented with necessary vitamins and minerals to satisfy 1994 National Research Council requirements. Weekly body weights were measured. […] Mean body weight averages of chicks in all treatments decreased with each cycle of litter re-use due to infection.

[2] = tested on: E. tenella; experiment: 28-day trial, broiler chicks challenged with E. tenella (Example 1); assay type: in vivo, Cornish Rock male broiler chicks
Method: A 28-day trial with 360 Cornish Rock male broiler chicks was conducted to investigate the effects of two medicated feeds on the suppression of detrimental effects of E. tenella (See Tables I & II).
Day-old chicks were fed standard corn soya diets containing Monensin ([…]) or a yeast cell wall/mannanoligosaccharide-containing composition (BIO-MOS®, Alltech, Inc., Nicholasville, Ky.) (1 kg/tonne). The experimental groups included: 1) negative control (unmedicated, unchallenged); 2) positive control (untreated, challenged); 3) Monensin-treated, challenged and 4) BIO-MOS®-treated, challenged. Birds were randomly assigned to three replicate pens in each treatment group. At 14 days of age, chicks were infected orally by gavage with E. tenella (50,000 oocysts/bird). The response variables measured included weekly body weight gain and cecal lesion scores as described (Johnson and Reid. 1970 “Anticoccidial Drugs: Lesion Scoring Technique in Battery and Floor Pen Experiments with Chickens.” Exp. Parasitol. 28:30-36). Treatment differences were evaluated by using the LSD procedure with the General Linear Models Procedure (SAS Institute, 1985, Cary, N.C.) using pens as the experimental units. The model statement included only treatment effects. When significance differences (P<0.05) were observed, the least significant differences (LSD) procedures was applied to test for the differences among treatments.

[3] = tested on: E. maxima; experiment: 28-day trial, broiler chicks challenged with E. maxima (Example 2); assay type: in vivo, Cornish Rock male broiler chicks
Method: A 28-day trial with 360 Cornish Rock male broiler chicks was conducted to investigate the effects of two medicated feeds on the suppression of E. maxima infection. Thirty day-old chicks per treatment group were housed in battery cages and fed a standard soya corn diet containing Monensin ([…]) or a commercially available yeast cell-derived composition containing yeast cell wall material and mannanoligosaccharide (BIO-MOS®) (1 kg/tonne). The four experimental groups included: 1) negative control (unmedicated, unchallenged); 2) positive control (unmedicated, challenged); 3) Monensin treated, challenged, and 4) BIO-MOS® treated, challenged. Birds were assigned to treatments and replicate pens as described in Example 1. At 14 days of age, chicks were infected orally by gavage with E. maxima (50,000 oocysts/bird). The response variables measured included weekly body weight gain and cecal lesion scores. Such measurements were subjected to analysis of variance as described in Example 1.

[4] = tested on: E. acervulina; experiment: 28-day trial, broiler chicks challenged with E. acervulina (Example 3); assay type: in vivo, Cornish Rock male broiler chicks
Method: A 28-day trial with 360 Cornish Rock male broiler chicks was conducted to investigate the effects of two medicated feeds on the suppression of detrimental effects of E. acervulina.
Day-old chicks were fed a standard corn soya diet containing Salinomycin (6 mg/kg) or BIO-MOS® (1 kg/tonne). The four experimental groups were: 1) negative control, unmedicated, unchallenged; 2) Salinomycin-treated, challenged, 3) BIO-MOS®-treated, challenged and 4)BIO-MOS® treated, unchallenged. Birds were randomly assigned to three replicate pens in each treatment group. At 14 days of age, chicks were infected orally by gavage with E. acervulina (500,000 oocysts/bird). The response variables measured included weekly body weight gain and cecal lesion scores. Data were subjected to ANOVA using the General Linear Model procedure (SAS Institute, Cary, N.C.) as described in Example 1.

[5] = tested on: Eimeria spp.; experiment: 20-day battery trial, chicks challenged with sporulated Eimeria species (Example 5); assay type: in vivo, broiler chicks (Cobb)
Method: A 20-day battery trial was conducted to determine the anticoccidial activity of a BIO-MOS® in broiler chicks (Cobb) challenged with sporulated Eimeria species. One hundred sixty chicks (day old) were housed in battery cages (10 chicks per cage, 459 sq.cm/bird). There were 4 replicated cages per treatment. A standard soya corn diet was provided with water ad libitum. Treatment groups were the following: 1) Negative control (non-medicated, unchallenged); 2) Positive control (non-medicated and challenged; 3) BIO-MOS®, 1 kg/tonne (challenged); and 4) Salinomycin, 60 g/tonne (challenged).
The challenge inoculum was provided at 14 days of age and contained respectively, 50,000 E. acervulina, 5,000 E. maxima or 40,000 E. tenella oocysts administered by oral gavage. Body weights and feed consumption were measured at 0, 14 and 20 days of age.
Six days post infection all birds were sacrificed and lesion scored, using the method of Johnson and Reid supra. Lesion scores were evaluated in the upper (E. acervulina), middle (E. maxima), and cecal (E. tenella) regions of the intestine.

[6] = tested on: Eimeria spp.; experiment: 20-day battery trial, chicks challenged with sporulated Eimeria species (Example 4); assay type: in vivo, broiler chicks (Cobb)
Method: A 20-day battery trial was conducted to determine the anticoccidial activity of a yeast cell composition in broiler chicks (Cobb) challenged with sporulated Eimeria species. One hundred sixty chicks (day old) were housed in battery cages (10 chicks per cage, 459 sq. cm/bird). There were four replicated cages per treatment. A standard corn soya diet was provided with water ad libitum. Treatment groups were the following: (1) Negative control (non-medicated, unchallenged); 2) positive control (non-medicated, challenged; 3) BIO-MOS®, 1 kg/tonne (challenged); and 4) Salinomycin, 60 g/tonne (challenged).
The challenge inoculum was provided at 14 days of age and contained 50,000 E. acervulina, 5,000 E. maxima or 40,000 E. tenella oocysts, respectively, administered by oral gavage. Body weights and feed consumption were measured at 9, 14 and 20 days of age. Six days post-infection all birds were sacrificed and lesion scored using the method of Johnson and Reid (1970) supra. Lesion scores were evaluated in the upper (E. acervulina), middle (E. maxima), and cecal (E. tenella) regions of the intestine.

[7] = Eimeria spp. infected, BIO-MOS 1 kg/t, Salinomycin 60 g/t
[8] = post-challenge period, BIO-MOS 1 kg/t, Salinomycin 60 g/t
[9] = post-challenge weight gain versus unchallenged control
[10] = pre-challenge period, BIO-MOS 1 kg/t, Salinomycin 60 g/t
[11] = whole trial, BIO-MOS 1 kg/t, Salinomycin 60 g/t

CC[C@@H](C(=O)[C@@H](C)[C@@H](O)[C@H](C)CCc1ccc(C)c(O)c1C(=O)O)[C@H]1O[C@](CC)([C@H]2CC[C@](O)(CC)[C@H](C)O2)C[C@@H]1C [AVATEC, lasalocid]
Body Weight, Trial 1 ([1]; 42-day trial 1 on recycled litter): 2271^a Grams | Body Weight, Trial 2 ([1]; 42-day trial 2 on same recycled litter): 1863^b Grams | Body Weight, Trial 3 ([1]; 42-day trial 3 on same recycled litter): 1760^ab Grams

CC[C@@]1([C@@H]2O[C@@H]([C@H]3O[C@@](O)(CO)[C@H](C)C[C@@H]3C)C[C@@H]2C)CC[C@H]([C@]2(C)CC[C@]3(C[C@H](O)[C@@H](C)[C@@H]([C@@H](C)[C@@H](OC)[C@H](C)C(=O)O)O3)O2)O1 [Monensin]
Average Weight Gain, Mean ([2]; E. tenella infected, weeks 2-4 after challenge, mean of 3 replications): 544 Grams | Average Weight Gain, Replication 1 ([2]; E. tenella infected, weeks 2-4 after challenge, replicate pen 1): 498 Grams | Average Weight Gain, Replication 2 ([2]; E. tenella infected, weeks 2-4 after challenge, replicate pen 2): 611 Grams | Average Weight Gain, Replication 3 ([2]; E. tenella infected, weeks 2-4 after challenge, replicate pen 3): 523 Grams | Cecal Lesion Scores ([2]; chicks infected with E. tenella 50,000 oocysts/bird at 14 days, Monensin 60 g/kg or BIO-MOS 1 kg/tonne in feed): 1.50^b | improvements in weight gain relative to E. tenella-challenged control ([2]; standard Monensin treatment): not seen | severity of the E. tenella infections as measured by cecal lesion scores ([2]; versus untreated challenged control): significantly (P<0.05) reduced | Average Weight Gain, Mean ([3]; E. maxima infected, 2-4 weeks after challenge, mean of 3 replications): 536 | Average Weight Gain, Replication 1 ([3]; E. maxima infected, 2-4 weeks after challenge, replicate pen 1): 598 | Average Weight Gain, Replication 2 ([3]; E. maxima infected, 2-4 weeks after challenge, replicate pen 2): 412 | Average Weight Gain, Replication 3 ([3]; E. maxima infected, 2-4 weeks after challenge, replicate pen 3): 599 | reduction of average cecal lesion scores ([3]; E. maxima infection, versus positive control): 21% | Cecal Lesion Scores ([3]; chicks challenged with E. maxima 50,000 oocysts/bird at 14 days, Monensin 60 g/kg or BIO-MOS 1 kg/tonne in feed): 0.93^b

CC[C@@H](C(=O)[C@@H](C)[C@@H](O)[C@H](C)[C@@H]1O[C@@H]([C@@H](CC)C(=O)O)CC[C@@H]1C)[C@H]1O[C@]2(C=C[C@@H](O)[C@]3(CC[C@@](C)([C@H]4CC[C@](O)(CC)[C@H](C)O4)O3)O2)[C@H](C)C[C@@H]1C [Salinomycin]
Body Weight Gain Post-Infection Week 3 ([4]; Challenge: Yes (E. acervulina)): 350^a grams | Body Weight Gain Post-Infection Week 4 ([4]; Challenge: Yes (E. acervulina)): 607^ab grams | Body Weight Pre-Infection Week 2 ([4]; Challenge: Yes (E. acervulina)): 236^a grams | reduction of severity of cecal lesions (cecal lesion scores) ([4]; E. acervulina challenge, versus positive control): 57% | Cecal Lesion Scores ([4]; chicks challenged with E. acervulina 500,000 oocysts/bird at 14 days, Salinomycin 6 mg/kg or BIO-MOS 1 kg/tonne in feed): 0.92^bc | lesion scores versus the positive control in all regions of the gut ([5]; Eimeria spp. challenge): significantly lower lesion scores | Feed Conv. [5, 7]: 1.675^a | Average Cecal Lesion Scores, Ceca ([5]; cecal region (E. tenella), six days post infection, BioMos 1 kg/t, Salinomycin 60 g/t): 1.2^b | Average Cecal Lesion Scores, Mid ([5]; middle intestine (E. maxima), six days post infection, BioMos 1 kg/t, Salinomycin 60 g/t): 0.7^b | Avg. Live Wt. Gain Day 14-20 [5, 8]: 0.243^ab kg | % Wt. Gain Reduction [5, 9]: 8.90% | Avg. Live Wt. Gain Day 0-14 [5, 10]: 0.262^a kg | Average Cecal Lesion Scores, Total ([5]; total of regions, six days post infection, BioMos 1 kg/t, Salinomycin 60 g/t): 2.7^ab | Average Cecal Lesion Scores, Upper ([5]; upper intestine (E. acervulina), six days post infection, BioMos 1 kg/t, Salinomycin 60 g/t): 0.8^b | Avg. Live Wt. Gain Day 0-20 [5, 11]: 0.504^ab kg | lesion scores compared to control groups in the upper and mid intestine regions ([6]; Eimeria spp. challenge): significantly reduced (P<0.05) | Feed Conv. [6, 7]: 1.511^b | Average Cecal Lesion Scores, Ceca ([6]; cecal region (E. tenella), six days post-infection, BioMos 1 kg/t, Salinomycin 60 g/t): 0.6^c | Average Cecal Lesion Scores, Mid ([6]; middle intestine (E. maxima), six days post-infection, BioMos 1 kg/t, Salinomycin 60 g/t): 0.8^c | Avg. Live Wt. Gain Day 14-20 [6, 8]: 0.314^a kg | % Wt. Gain Reduction [6, 9]: −0.41% | Avg. Live Wt. Gain Day 0-14 [6, 10]: 0.634^a kg | Average Cecal Lesion Scores, Total ([6]; total of regions, six days post-infection, BioMos 1 kg/t, Salinomycin 60 g/t): 2.7^c | Average Cecal Lesion Scores, Upper ([6]; upper intestine (E. acervulina), six days post-infection, BioMos 1 kg/t, Salinomycin 60 g/t): 1.3^c | Avg. Live Wt. Gain Day 0-20 [6, 11]: 0.634^a kg
